Entries after “also recorded” stand apart in the source; their conditions may differ. Where two headings read alike, the source gives them in different places. Each block holds one compound with its values, some of them ahead of it.
Legend:
[1] = tested on: isolated guinea pig hearts; assay: Isolated Langendorff-perfused guinea pig hearts: AERP, QTcB, heart rate
Protocol: AP14145 was supplied by Acesion Pharma. Dofetilide was purchased at Sigma-Aldrich (St. Louis, USA) for the Langendorff and Hello Bio (Bristol, UK) for the closed chest in vivo experiments. Ondansetron was purchased at Sigma-Aldrich (St. Louis, USA). For the Langendorff perfused heart experiments the compounds were dissolved in DMSO to make stock solutions and diluted to the final concentration in the Krebs-Henseleit buffer during the experiments. The final concentration of DMSO never exceeded 0.3% in the buffer. For the closed chest experiments, the compounds were first dissolved in PEG-400 and then diluted to a 50% saline and 50% PEG-400 solution. The Langendorff perfused heart experiments were performed using a total of 24 female Dunkin Hartley guinea pigs (350–450 g, Charles River, Saint-Germain-Nuelle, France). Guinea pigs were anesthetized with an i.p. injection of pentobarbital 200 mg/ml, lidocaine hydrochloride 20 mg/ml, (Glostrup Apotek, Denmark), dose 0.150 ml/100 g body weight. A tracheotomy was performed and the guinea pigs were ventilated with 60 strokes*5 ml/min using a rodent ventilator (7025 Rodent ventilator, Ugo Basile, Italy). The hearts were excised and cannulated in situ through a small puncture of the aorta and connected to the Langendorff retrograde perfusion setup (Hugo Sachs Elektronik, Harvard Apparatus GmbH, March, Germany). The hearts were retrogradely perfused at a constant perfusion pressure of 60 mmHg at 37°C, pH 7.4, Krebs-Henseleit buffer (in mM: […] The aortic perfusion pressure was determined with an ISOTEC transducer (Hugo Sachs Elektronik) and the coronary flow was measured with an ultrasonic flow meter (Transonic Systems Inc., USA). Both were connected to an amplifier (Hugo Sachs Elektronik). The electrical activity was measured using volume conducted ECGs and by placing epicardial monophasic action potential electrodes (MAPs) on the atria and ventricles. The hearts were immersed into a temperature-controlled bath containing pH 7.4 Krebs-Henseleit buffer. Perfusion pressure, coronary flow, ECG, and MAP analogue signals sampled at a frequency of 2k/s and converted by a 16/30 data acquisition system from PowerLab systems (ADInstruments, Oxford, UK) and monitored using LabChart 7 software (ADInstruments). A bipolar pacing electrode was placed on the right atrial appendage for epicardial pacing stimulation using square pulses of 2 ms durations at three times diastolic threshold at 300 beats per minute. During the entire experiment, the ECG was monitored and monophasic action potential electrodes were placed on each chamber of the heart. The hearts were then left to stabilize for 20 min at intrinsic heart rhythm. The right AERP was measured by 10 regular stimuli (S1) followed by a premature extra stimulus (S2) applied with 1-ms increments. The AERP was defined as the longest S1–S2 interval failing to elicit an action potential. […] After a period of stabilization, every Langendorff experiment consisted of four 20-min episodes ( Figure 1 ). […] During the entire experiment, the AERP was measured every 5 min and the ECG was continuously monitored.

[2] = tested on: guinea pigs; assay: In vivo closed chest atrially paced guinea pig model: AERP, QTcB, heart rate
Protocol: AP14145 was supplied by Acesion Pharma. […] For the Langendorff perfused heart experiments the compounds were dissolved in DMSO to make stock solutions and diluted to the final concentration in the Krebs-Henseleit buffer during the experiments. The final concentration of DMSO never exceeded 0.3% in the buffer. For the closed chest experiments, the compounds were first dissolved in PEG-400 and then diluted to a 50% saline and 50% PEG-400 solution. A total of 18 female guinea pigs (Dunkin Hartley HsdPoc : GH, Charles River) weighing 350-450 g were anesthetized with 5% isoflurane/oxygen in a sedation box. The guinea pigs were placed under artificial ventilation through a cannula placed in the trachea and anesthesia was reduced to 2.5% isoflurane/oxygen throughout the experiment. The temperature of the guinea pigs was monitored with a rectal thermometer and kept stable during the experiment using a heating lamp. Needle ECG electrodes were placed in each limb for ECG recordings (ADInstruments, UK). An electrophysiological catheter with eight electrodes (EPR-802) (Millar Inc., US) was placed in the right atrium via the right jugular vein. The two electrodes proximal to the tip of the catheter ([[…] et al., 2006]; [[…] et al., 2012]) were used to pace the atrium and six electrodes ([Waldo et al., 1996]; [[…] et al., 2003]; [Roukoz and […] et al., 2009]; [Grunnet et al., 2012]; [Zimetbaum, 2012]) were used to measure the electrical activity in the atrium. The AERP was measured as in the Langendorff experiments. Between the AERP recordings, the heart remained unpaced. An intravenous catheter (inside diameter 0.5, outside diameter 0.8 mm, Natsume Seisakusho, Japan) was placed in the right jugular vein alongside the electrophysiology catheter for drug infusion. […] First a period of 20 min baseline recording was conducted with AERP measurements every 5 min ( Figure 1 ). […] The AERP was measured every 5 min during baseline and every 2 min during and after infusion.

[3] = target: T1, hKCa2.2 (Homo sapiens, UniProt Q9H2S1); set-up: method as in Simó-Vicens et al., 2017b; settings: hKCa2.2, manual patch clamp; ref Simó-Vicens et al., 2017b; cited from earlier work
[4] = target: T2, hKCa2.3 (Homo sapiens, UniProt Q9UGI6); set-up: method as in Simó-Vicens et al., 2017b; settings: hKCa2.3, manual patch clamp; ref Simó-Vicens et al., 2017b; cited from earlier work
[5] = target: T2, hKCa2.3; settings: hKCa2.3, automated patch clamp, cited from earlier work
[6] = target: T3, hKv11.1 (Homo sapiens, UniProt Q12809); set-up: method as in Diness et al., 2017; settings: hKv11.1, automated patch clamp; ref Diness et al., 2017; cited from earlier work
T3 construct: expressed in transfected cells

[7] = target: T1, hKCa2.2; set-up: method as in Simó-Vicens et al., 2017a; settings: hKCa2.2, automated patch clamp; ref Simó-Vicens et al., 2017a; cited from earlier work
[8] = target: T1, hKCa2.2; assay: Manual whole-cell patch clamp, IKCa in HEK293 cells transiently transfected with hKCa2.2; type: cell-based
Protocol: These stock solutions were stored at −20°C and aliquots were solubilized at the desired concentration on the day of the experiment.
(§1) The KCa2.2 manual patch-clamp experiments and KCa2.2/KCa2.3 QPatch experiments were conducted using symmetrical K^+ solutions. The extracellular solution contained (in mM) 0.1 CaCl2, 3 MgCl2, 154 KCl, 10 HEPES, and 10 glucose (pH = 7.4 and 285–295 mOsm). The intracellular solution contained (in mM) 8.106 CaCl2 (final free Ca^2+ concentration of 400 nM), 1.167 MgCl2, 10 EGTA, 108 KCl, 10 HEPES, 31.25/10 KOH/EGTA, and 15 KOH (pH = 7.2).
The cells were cultured in Dulbecco’s modified Eagle’s medium (DMEM1965, Thermo Fisher, USA) supplemented with 26.2 mM NaHCO3, 25 mM HEPES, 10 ml L^-1 Glutamax (Gibco, USA), 10% fetal bovine serum (Biowest, France), and 100 U ml^-1 of penicillin/streptomycin (Sigma, Germany); 1 to 2 days after the transfection, patch clamp experiments were conducted. […]
Manual patch clamp recordings were made using a HEKA EPC9 amplifier and the PatchMaster software (HEKA Elektronik, Germany) at room temperature using the whole cell configuration. Fluorescence was used to detect successfully transfected cells. […]
(§2) For IKCa and IKr, the mean of the last three data points was used for further analysis. […] Individual IC50 values were calculated for each experiment and then used to obtain the final mean ± S.E.M.

[9] = target: T1, hKCa2.2; assay: Automated patch clamp (QPatch), IKCa in HEK293 cells stably expressing hKCa2.2; type: cell-based; settings: hKCa2.2, automated patch clamp, present study, n = 8
Protocol: as §1
(§3) Bicuculline methiodide was used as a positive control for KCa2 specific current at the beginning and the end of the experiment.
(§4) The cells were cultured in Dulbecco’s modified Eagle’s medium (DMEM1965, Thermo Fisher, USA) supplemented with 26.2 mM NaHCO3, 25 mM HEPES, 10 ml L^-1 Glutamax (Gibco, USA), 10% fetal bovine serum (Biowest, France), 100 U ml^-1 of penicillin/streptomycin (Sigma, Germany), and 100 µg/ml Geneticin (Gibco, UK) […]
as §2

[10] = target: T2, hKCa2.3; assay: Automated patch clamp (QPatch), IKCa in HEK293 cells stably expressing hKCa2.3; type: cell-based
Protocol: as §1, §3, §4, §2

[11] = target: T3, hKv11.1; assay: Automated patch clamp (QPatch), IKr in CHO-K1 cells stably expressing Kv11.1; type: cell-based; settings: Kv11.1 current
Protocol: For the Kv11.1 experiments conducted on the automated QPatch machine, the extracellular solution contained (in mM) 145 NaCl, 4 KCl, 2 CaCl2, 1 MgCl2, 10 HEPES, and 10 glucose (pH = 7.4 and 305 mOsm adjusted with sucrose). The intracellular solution contained (in mM) 120 KCl, 31.25/10 KOH/EGTA, 5.4 CaCl2, 1.75 MgCl2, 4 mM Na2ATP, and 10 HEPES (pH = 7.2 and 285–296 mOsm adjusted with sucrose). Recordings were made before and after application of drug.
The cells were cultured in DMEM F12 (Sigma, Germany), 10% fetal bovine serum (Biowest, France) and 100 U ml^-1 of penicillin/streptomycin (Sigma, Germany), 100 µg/ml Geneticin (Gibco, UK), 100 µg/ml hygromycin (Sigma-Aldrich), and 2 mM glutamine (Gibco, UK).
On the day of experiment, when cells reached about 70–90% confluency, they were detached with Detachin (Genlantis, USA) and resuspended in serum free medium (C5467 SAFC, Switzerland) containing 25 mM HEPES, 0.04 mg/ml soy bean trypsin inhibitor (T6522 Sigma-Aldrich), and 100 U/ml penicillin/streptomycin and were kept in suspension for QPatch experiments.
Automated patch-clamp whole-cell recordings were performed using a QPatch 16 HT system and disposable single-hole QPlates (Sophion, Denmark). […]

T3 sequence (Q12809 whole entry): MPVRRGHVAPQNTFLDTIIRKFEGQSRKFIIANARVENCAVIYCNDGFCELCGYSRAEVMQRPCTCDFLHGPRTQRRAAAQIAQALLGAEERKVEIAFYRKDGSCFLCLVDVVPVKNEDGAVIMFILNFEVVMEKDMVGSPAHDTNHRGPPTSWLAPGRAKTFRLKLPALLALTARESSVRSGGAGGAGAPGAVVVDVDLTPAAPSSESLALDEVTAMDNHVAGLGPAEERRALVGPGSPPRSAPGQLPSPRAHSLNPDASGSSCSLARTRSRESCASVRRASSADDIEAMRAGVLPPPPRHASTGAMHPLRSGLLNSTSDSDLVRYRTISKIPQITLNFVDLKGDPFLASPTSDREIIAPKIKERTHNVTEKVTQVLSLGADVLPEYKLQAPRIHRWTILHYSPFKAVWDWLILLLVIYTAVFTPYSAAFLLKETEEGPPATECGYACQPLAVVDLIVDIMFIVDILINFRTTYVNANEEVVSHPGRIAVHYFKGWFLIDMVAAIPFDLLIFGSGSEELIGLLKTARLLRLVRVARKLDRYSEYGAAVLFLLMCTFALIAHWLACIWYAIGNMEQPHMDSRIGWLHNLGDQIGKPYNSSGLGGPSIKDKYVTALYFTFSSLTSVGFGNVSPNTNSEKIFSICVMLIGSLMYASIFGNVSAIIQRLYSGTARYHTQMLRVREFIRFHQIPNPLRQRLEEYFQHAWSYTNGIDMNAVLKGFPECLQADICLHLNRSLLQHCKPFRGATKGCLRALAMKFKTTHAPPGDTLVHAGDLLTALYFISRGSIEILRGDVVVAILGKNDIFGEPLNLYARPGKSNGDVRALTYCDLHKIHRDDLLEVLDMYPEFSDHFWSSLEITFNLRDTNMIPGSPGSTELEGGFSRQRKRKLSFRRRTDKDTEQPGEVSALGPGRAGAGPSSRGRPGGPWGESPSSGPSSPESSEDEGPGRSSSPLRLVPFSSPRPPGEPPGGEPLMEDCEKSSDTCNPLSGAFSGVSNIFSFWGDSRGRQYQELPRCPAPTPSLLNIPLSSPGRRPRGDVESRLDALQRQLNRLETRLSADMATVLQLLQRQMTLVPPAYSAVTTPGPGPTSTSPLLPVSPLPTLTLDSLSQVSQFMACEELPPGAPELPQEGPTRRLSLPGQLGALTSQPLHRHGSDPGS

SMILES: CC(=O)Nc1cccc2[nH]c(N[C@H](C)c3cccc(C(F)(F)F)c3)nc12 [AP14145]
AERP ([1]; 10 µM, end of wash-in, TMC 61 ± 5 ms): 77 ± 2 ms
AERP (maximum) ([1]; 30 µM, TMC 64 ± 6 ms): 93 ± 2 ms
AERP (maximum during infusion) ([2]; 13.3 mg/kg infused over 20 min, TMC 75 ± 3 ms): 113 ± 6 ms
AERP ([2]; after 6 min of i.v. infusion (4 mg/kg given), TMC 72 ± 2 ms): 97 ± 6 ms
IC50 [3]: 1100 nM
IC50 [4]: 1100 nM
IC50 ([5]; ref Diness et al., 2017): 1.3 µM
IC50 [6]: 71.8 µM

SMILES: CN(CCOc1ccc(NS(C)(=O)=O)cc1)CCc1ccc(NS(C)(=O)=O)cc1 [Dofetilide]
HR, % of baseline values ([1]; 10 nM, TMC 94 ± 4%): 83 ± 3%
QTcB ([1]; 10 nM, TMC 271 ± 5 ms): 306 ± 9 ms
AERP ([1]; 30 nM, TMC 64 ± 6 ms): 80 ± 4 ms
HR, % of baseline values ([1]; 30 nM, TMC 91 ± 4%): 80 ± 3%
QTcB ([1]; 30 nM, TMC 269 ± 6 ms): 313 ± 9 ms
Effect on AERP ([2]; 0.01 mg/kg infused over 20 min): No effect on AERP
HR, % of the baseline average ([2]; 0.01 mg/kg, minimum, 5 min after end of infusion, TMC 93 ± 2%): 82 ± 3%
QTcB ([2]; after 5 min of infusion, 0.01 mg/kg over 20 min, TMC 280 ± 9 ms): 319 ± 11 ms
IC50 [7]: 60 µM
IC50 ([5]; ref Simó-Vicens et al., 2017a): 90 µM

IC50 ([8]; hKCa2.2, manual patch clamp, present study): > 1000 nM
IC50 [9]: > 30 µM
IC50 ([10]; hKCa2.3, automated patch clamp, present study, n = 8): > 30 µM
Effect on IKCa ([10]; up to 30 µM, hKCa2.3 current): did not inhibit IKCa
SMILES: Cc1nccn1CC1CCc2c(c3ccccc3n2C)C1=O (stereo not drawn) [Ondansetron]
Effect on IKCa ([8]; 1 µM, hKCa2.2-expressing HEK cells, 400 nM intracellular calcium, n = 5): failed to inhibit IKCa; also recorded: did not inhibit IKCa
Concentration from which IKr is blocked [11]: ≥ 3 µM
QTcB ([1]; 3 µM, TMC 269 ± 6 ms): 294 ± 5 ms
Effect on AERP compared to TMC ([1]; concentrations up to 3µM): did not affect AERP significantly
Effect on HR compared to TMC ([1]; concentrations up to 3µM): did not significantly affect HR
